Values quoted from earlier work as cited in US20050272804A1, “Methods of delaying Alzheimer's disease progression using a beta-amyloid precursor protein inhibitor and a HMG CoA reductase inhibitor” (priority 2004, published 2005).

Tests used:
[1] = system: NOS; conditions: Tg mice, 2.5 mg/kg, i.p., brain extracts
[2] = system: Aβ; conditions: Tg mice, 2.5 mg/kg, i.p.
[3] = system: brain extracellular acetylcholine (ACh); conditions: striatal microdialysis, conscious freely-moving rats
[4] = rats, i.v. dosing
[5] = molecular target: T1, AChE (Rattus norvegicus, UniProt P37136); conditions: rats, after phenserine administration
T1 construct: from tissue
T1 sequence (P37136 32-614): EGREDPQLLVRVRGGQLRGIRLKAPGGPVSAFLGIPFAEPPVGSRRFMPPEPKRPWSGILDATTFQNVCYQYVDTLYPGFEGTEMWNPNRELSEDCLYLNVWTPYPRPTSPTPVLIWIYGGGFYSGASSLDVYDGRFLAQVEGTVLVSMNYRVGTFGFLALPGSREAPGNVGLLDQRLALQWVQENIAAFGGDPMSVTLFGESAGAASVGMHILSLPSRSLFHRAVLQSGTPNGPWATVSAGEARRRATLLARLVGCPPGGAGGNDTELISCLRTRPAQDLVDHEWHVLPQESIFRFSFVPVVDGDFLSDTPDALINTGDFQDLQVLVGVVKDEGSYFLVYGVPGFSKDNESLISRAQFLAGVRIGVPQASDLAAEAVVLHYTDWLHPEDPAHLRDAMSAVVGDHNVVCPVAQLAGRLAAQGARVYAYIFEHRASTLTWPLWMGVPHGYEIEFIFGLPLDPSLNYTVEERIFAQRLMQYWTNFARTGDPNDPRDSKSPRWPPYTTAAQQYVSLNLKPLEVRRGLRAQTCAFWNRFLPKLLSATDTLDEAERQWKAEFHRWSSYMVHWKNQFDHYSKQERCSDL

[6] = system: neuronal NOS (nNOS); conditions: Tg mice, 2.5 mg/kg, i.p., brain extracts
[7] = system: cholinesterase

SMILES | NOS activity, treated vs control Tg groups [1] | lowering of brain Aβ levels [2] | rise in brain ACh levels [3] | brain drug levels relative to plasma [4] [fold] | time to peak drug level ([4]; brain and plasma) [min] | half-life of AChE inhibition [5] [h] | inhibition of AChE [5] [%] | levels of nNOS protein [6] | anticholinesterase activity [7]
CN1CC[C@@]2(C)c3cc(OC(=O)Nc4ccccc4)ccc3N(C)C12 (single isomer, unassigned) [phenserine] | no significant difference | approximately 50% | greater than 3 fold | 10 | ≤ 5 | > 8.25 | > 70 | increased | –
CN1CC[C@]2(C)c3cc(OC(=O)Nc4ccccc4)ccc3N(C)C12 (single isomer, unassigned; (+)) [(+)-Penserine] | – | – | – | – | – | – | – | – | minimal
